Columns and labels:
[1] = test system: E. faecalis ATTC29212 LMG 8222; experiment: Anti-bacterial activity, Bioscreen C growth curve: E. faecalis; assay type: cell-based; details: Enterococcus faecalis, LMG8222, 35° C., 16 hours, negative control = 100, read-out: % of growth at 25 PPM compared to the negative control, E. faecalis ATTC29212 LMG 8222
Procedure: (§1) For the determination of the anti-bacterial and anti-fungal activity the Bioscreen C Analyser Labsystems, Finland, was used. This is an automated reader-incubator. It measures growth continuously by vertical photometry (optical density), processes the data and provides a print out of the results. The area under the growth curve is automatically determined via the Biolink software.
(§2) The inoculum size of the bacteria is standardized to approximately 5×10^5 CFU/ml.
(§3) For bacteria, the 100-honey-well plates containing test chemical, Mueller-Hinton broth and inoculum (=sample) are incubated at 35° C. for 16 hours. Also wells without inoculum are incubated (=blanco). Yeasts are incubated 35° C. for 24 hours in RPMI 1640+MOPS buffer at 165 mM. Moulds also in RPMI 1640+MOPS buffer at 165 mM are incubated 25° C. for 5 days. All micro-organisms are screened against a known concentration of the reference antibiotics or antimycotics such as vancomycin, penicillin G, gentamicin or amphotericin B. The growth curve and the area under the growth curve can be determined using the Biolink software; this is illustrated in FIG. 1.
(§4) The area of the blanco is subtracted from the area of the sample, this number (delta) gives us an indication of the biological activity of the molecules tested and can be expressed as a % of growth at a specific dose compared to a negative control that has a value of 100, illustrated in FIG. 2. Screening of each dose of a specific compound is repeated 5 times. The dose used for all new molecules in all tests is 25 PPM or 25 μg/ml.
(§5) In Table 4 the results of the anti-bacterial activity is given for the new molecules. The micro-organisms used are Staphylococcus aureus, MRSA, VRE, Enterococcus faecalis, Salmonella typhimurium and Pseudomonas aeruginosa.

[2] = test system: VRE ATCC700221; experiment: Anti-bacterial activity, Bioscreen C growth curve: VRE; assay type: cell-based, vancomycin-resistant Enterococcus (VRE); details: Enterococcus, 35° C., 16 hours, negative control = 100, read-out: % of growth at 25 PPM compared to the negative control, VRE ATCC700221
Procedure: as §1, §2, §3, §4, §5

[3] = test system: S. aureus ATTC29213 LMG10147; experiment: Anti-bacterial activity, Bioscreen C growth curve: S. aureus; assay type: cell-based; details: Staphylococcus aureus, 35° C., 16 hours, negative control = 100, read-out: % of growth at 25 PPM compared to the negative control, S. aureus ATTC29213 LMG10147
Procedure: as §1, §2, §3, §4, §5

[4] = test system: MRSA ATCC33591; experiment: Anti-bacterial activity, Bioscreen C growth curve: MRSA; assay type: cell-based, methicillin-resistant Staphylococcus aureus (MRSA); details: Staphylococcus aureus, ATCC 33591 / LMG10147 / MRSA; 25 PPM; 35° C., 16 hours; negative control = 100; read-out: % of growth at 25 PPM compared to the negative control, MRSA ATCC33591 LMG10147
Procedure: as §1, §2, §3, §4, §5

[5] = test system: P. aeruginosa ATCC27853 LMG16217; experiment: Anti-bacterial activity, Bioscreen C growth curve: P. aeruginosa; assay type: cell-based, Pseudomonas aeruginosa; details: Pseudomonas aeruginosa; 25 PPM; 35° C., 16 hours; negative control = 100; read-out: % of growth at 25 PPM compared to the negative control, P. aeruginosa ATCC27853 LMG16217
Procedure: as §1, §2, §3, §4, §5

[6] = test system: S. typhimurium ATTC700408; experiment: Anti-bacterial activity, Bioscreen C growth curve: S. typhimurium; assay type: cell-based; details: Salmonella enterica, LMG16217 / TYPHIMURIUM, 35° C., 16 hours, negative control = 100, read-out: % of growth at 25 PPM compared to the negative control, S. typhimurium ATTC700408 LMG16217
Procedure: as §1, §2, §3, §4, §5

[7] = test system: Candida albicans IHEM 10284 - ATCC 24433; experiment: Anti-fungal activity, Bioscreen C growth curve: Candida albicans (yeast); assay type: cell-based; details: Candida albicans, ATCC24433; 25 PPM; 35° C., 24 hours; negative control = 100; read-out: % of growth at a dose of 25 PPM compared to the negative control, Candida albicans IHEM 10284 - ATCC 24433
Procedure: as §1
The inoculum size of the yeast is standardized to 0.5-2.5×10^3 CFU/ml.
as §3, §4
(§6) In Table 5 the anti-fungal activity is given for the new molecules. The micro-organisms used were Candida albicans (a typical yeast) and Microsporum gypseum (a typical mold).
as §1, with “Also for” for “For”, “the” for “the anti-bacterial and”, “Labsystems Oy, Finland” for “Labsystems, Finland,”, “used.” for “used. This is an automated reader-incubator.”
(§7) The inoculum size of the yeast is standardized to 0.5-2.5×10^3 CFU/ml. The inoculum size of the mould is standardized to 0.4-5.0×10^4 CFU/ml. Yeasts are incubated 35° C. for 24 hours in RPMI 1640+MOPS buffer at 165 mM. Moulds also in RPMI 1640+MOPS buffer at 165 mM are incubated 25° C. for 5 days.
(§8) As a control, all micro-organisms are screened against some reference antibiotics with known MIC. Screening of each dose of a specific compound is repeated 5 times.

[8] = test system: Microsporum gypseum IHEM 3999 - ATCC 14683; experiment: Anti-fungal activity, Bioscreen C growth curve: Microsporum gypseum (mold); assay type: cell-based; details: for activity at 25 ppm: Nannizzia gypsea, ATCC14683, 120 h, 25° C., 5 days, negative control = 100, read-out: % of growth at a dose of 25 PPM compared to the negative control, Microsporum gypseum IHEM 3999 - ATCC 14683
Procedure: as §1
The inoculum size of the mould is standardized to 0.4-5.0×10^4 CFU/ml.
as §3, §4, §6
as §1, with “Also for” for “For”, “the” for “the anti-bacterial and”, “Labsystems Oy, Finland” for “Labsystems, Finland,”, “used.” for “used. This is an automated reader-incubator.”
as §7, §8

## CO[C@H]1[C@@H]2OC(=O)CC/C=C/CCC(=O)OC[C@H]2OC[C@@H]1OC [KPE00001006]
[1]
  activity at 25 ppm: 92.5%
[2]
  activity at 25 ppm: 96.5%
[3]
  activity at 25 ppm: 94.7%
[4]
  activity at 25 ppm: 99.7%
[5]
  activity at 25 ppm: 87.3%
[6]
  activity at 25 ppm: 94.6%
[7]
  activity at 25 ppm: 93.1%
[8]
  activity at 25 ppm: 62%

## CO[C@@H]1[C@@H](OC)[C@H](Sc2ccccc2)O[C@@H]2COC(=O)CCC(O)C(O)CCC(=O)O[C@@H]12 (stereo partly drawn) [KPE00001007]
[1]
  activity at 25 ppm: 97%
[2]
  activity at 25 ppm: 93%
[3]
  activity at 25 ppm: 94.9%
[4]
  activity at 25 ppm: 97.8%
[5]
  activity at 25 ppm: 86.2%
[6]
  activity at 25 ppm: 89.7%
[7]
  activity at 25 ppm: 94.7%
[8]
  activity at 25 ppm: 76%

## CO[C@@H]1[C@@H](OC)[C@H](Sc2ccccc2)O[C@@H]2COCCC/C=C/CCCO[C@@H]12 [KPE00001009.1]
[1]
  activity at 25 ppm: 87.5%
[2]
  activity at 25 ppm: 82%
[3]
  activity at 25 ppm: 98.3%
[4]
  activity at 25 ppm: 107%
[5]
  activity at 25 ppm: 91.6%
[6]
  activity at 25 ppm: 90.1%
[7]
  activity at 25 ppm: 93.9%
[8]
  activity at 25 ppm: 60%

## CO[C@@H]1[C@@H](OC)[C@H](Sc2ccccc2)O[C@@H]2COCCC/C=C\CCCO[C@@H]12 [KPE00001009.2]
[1]
  activity at 25 ppm: 85.5%
[2]
  activity at 25 ppm: 86.4%
[3]
  activity at 25 ppm: 100%
[4]
  activity at 25 ppm: 111%
[5]
  activity at 25 ppm: 67.6%
[6]
  activity at 25 ppm: 90.1%
[7]
  activity at 25 ppm: 103%
[8]
  activity at 25 ppm: 54%
[8]; conclusion in text on Table 5
  anti-mold activity, in words: best anti-mold activity

## CO[C@H]1[C@@H]2OC(=O)CCCCCCC(=O)OC[C@H]2OC[C@@H]1OC [KPE00001010]
[1]
  activity at 25 ppm: 90.6%
[2]
  activity at 25 ppm: 93%
[3]
  activity at 25 ppm: 102%
[4]
  activity at 25 ppm: 110%
[5]
  activity at 25 ppm: 80.7%
[6]
  activity at 25 ppm: 88.8%
[7]
  activity at 25 ppm: 95.5%
[8]
  activity at 25 ppm: 60%

## CO[C@@H]1[C@@H](OC)[C@H](O)[C@@H](CO)O[C@H]1Sc1ccccc1 [KPE00001011]
[1]
  activity at 25 ppm: 89%
[2]
  activity at 25 ppm: 79%
[3]
  activity at 25 ppm: 89%
[4]
  activity at 25 ppm: 90.5%
[5]
  activity at 25 ppm: 85%
[6]
  activity at 25 ppm: 92.1%
[7]
  activity at 25 ppm: 79.3%
[8]
  activity at 25 ppm: 76.4%

## CO[C@@H]1[C@@H](OC)[C@H](O)[C@@H](CO)O[C@H]1Cc1ccccc1 [KPE00001020]
[1]
  activity at 25 ppm: 98.4%
[2]
  activity at 25 ppm: 99%
[3]
  activity at 25 ppm: 97.9%
[4]
  activity at 25 ppm: 99%
[5]
  activity at 25 ppm: 94.4%
[6]
  activity at 25 ppm: 92.3%
[7]
  activity at 25 ppm: 91%
[8]
  activity at 25 ppm: 78%

## O=C1CC/C=C/CCC(=O)O[C@H]2[C@H](OCc3ccccc3)[C@@H](OCc3ccccc3)[C@H](Sc3ccccc3)O[C@@H]2CO1 [KPE00001037]
[1]
  activity at 25 ppm: 97.6%
[2]
  activity at 25 ppm: 90%
[3]
  activity at 25 ppm: 98.5%
[4]
  activity at 25 ppm: 107%
[5]
  activity at 25 ppm: 89.3%
[6]
  activity at 25 ppm: 91%
[7]
  activity at 25 ppm: 87.4%
[8]
  activity at 25 ppm: 73%

## CO[C@@H]1[C@@H](OC)[C@H](c2ccccc2)O[C@@H]2COC(=O)CCC3OC3CCC(=O)O[C@@H]12 (stereo partly drawn) [KPE00001039]
[1]
  activity at 25 ppm: 94.1%
[2]
  activity at 25 ppm: 93%
[3]
  activity at 25 ppm: 97.7%
[4]
  activity at 25 ppm: 102%
[5]
  activity at 25 ppm: 91.3%
[6]
  activity at 25 ppm: 97%
[7]
  activity at 25 ppm: 96.4%
[8]
  activity at 25 ppm: 77%

## CO[C@@H]1[C@@H](OC)[C@H](c2ccccc2)O[C@@H]2COC(=O)CCC=CCCC(=O)O[C@@H]12 [KPE00001040]
[1]
  activity at 25 ppm: 85.1%
[2]
  activity at 25 ppm: 83.4%
[3]
  activity at 25 ppm: 94%
[4]
  activity at 25 ppm: 99.7%
[5]
  activity at 25 ppm: 78.5%
[6]
  activity at 25 ppm: 89%
[7]
  activity at 25 ppm: 101%
[8]
  activity at 25 ppm: 64%

— patent US7534871B2, “Preparation and use of carbohydrate-based bicyclic ring structures with antimicrobial and cytostatic activity” (Kemin Pharma B.V.B.A., priority 2004, dated 2009)
